Laboratory results taken from the kinase profiling compilation of Christmann-Franck et al. (2016).

Columns and labels:
Assay in all cases: radiometric filter-binding kinase assay
MAPK9 (human) = MAPK9 (human) (UniProt P45984)
IKBKE (human) = IKBKE (human) (UniProt Q14164)
PAK4 (human) = PAK4 (human) (UniProt O96013)
MAP3K11 (human) = MAP3K11 (human) (UniProt Q16584)
HIPK2 (human) = HIPK2 (human) (UniProt Q9H2X6)
DYRK1A (human) = DYRK1A (human) (UniProt Q13627)
CAMKK2 (human) = CAMKK2 (human) (UniProt Q96RR4)
YES1 (human) = YES1 (human) (UniProt P07947)
MKNK2 (human) = MKNK2 (human) (UniProt Q9HBH9)
MAPKAPK2 (human) = MAPKAPK2 (human) (UniProt P49137)
IKBKB (human) = IKBKB (human) (UniProt O14920)
MAPKAPK5 (human) = MAPKAPK5 (human) (UniProt Q8IW41)
CSNK1D (human) = CSNK1D (human) (UniProt P48730)
EPHB3 (human) = EPHB3 (human) (UniProt P54753)
MAP3K7 TAB1 (human) = MAP3K7 TAB1 (human) (UniProt Q15750+O43318)
MINK1 (human) = MINK1 (human) (UniProt Q8N4C8)
PRKACA (human) = PRKACA (human) (UniProt P17612)
MAPK14 (human) = MAPK14 (human) (UniProt Q16539)
MAPK12 (human) = MAPK12 (human) (UniProt P53778)
DYRK2 (human) = DYRK2 (human) (UniProt Q92630)
MAPK15 (human) = MAPK15 (human) (UniProt Q8TD08)
BRSK1 (human) = BRSK1 (human) (UniProt Q8TDC3)
CSK (human) = CSK (human) (UniProt P41240)
MAPK8 (human) = MAPK8 (human) (UniProt P45983)
PAK7 (human) = PAK7 (human) (UniProt Q9P286)
BTK (human) = BTK (human) (UniProt Q06187)
IGF1R (human) = IGF1R (human) (UniProt P08069)
AURKB (human) = AURKB (human) (UniProt Q96GD4)
EPHB2 (human) = EPHB2 (human) (UniProt P29323)
RIPK2 (human) = RIPK2 (human) (UniProt O43353)
MAP2K2 (human) = MAP2K2 (human) (UniProt P36507)
PIM1 (human) = PIM1 (human) (UniProt P11309)
EPHA4 (human) = EPHA4 (human) (UniProt P54764)
MELK (human) = MELK (human) (UniProt Q14680)
CaMK1 (human) = CaMK1 (human) (UniProt Q14012)
CaMK1 (human), sequence (Q14012 whole entry, looked up): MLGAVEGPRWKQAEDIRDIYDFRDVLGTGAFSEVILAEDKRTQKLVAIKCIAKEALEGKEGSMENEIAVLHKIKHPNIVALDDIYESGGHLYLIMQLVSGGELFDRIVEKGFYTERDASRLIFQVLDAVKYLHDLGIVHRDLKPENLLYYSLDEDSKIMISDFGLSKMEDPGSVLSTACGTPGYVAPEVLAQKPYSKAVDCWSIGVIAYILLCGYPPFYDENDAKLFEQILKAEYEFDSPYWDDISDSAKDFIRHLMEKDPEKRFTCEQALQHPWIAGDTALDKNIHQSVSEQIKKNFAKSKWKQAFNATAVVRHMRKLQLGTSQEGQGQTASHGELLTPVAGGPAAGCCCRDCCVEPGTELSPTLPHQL

BTK (human), sequence (Q06187 whole entry, looked up): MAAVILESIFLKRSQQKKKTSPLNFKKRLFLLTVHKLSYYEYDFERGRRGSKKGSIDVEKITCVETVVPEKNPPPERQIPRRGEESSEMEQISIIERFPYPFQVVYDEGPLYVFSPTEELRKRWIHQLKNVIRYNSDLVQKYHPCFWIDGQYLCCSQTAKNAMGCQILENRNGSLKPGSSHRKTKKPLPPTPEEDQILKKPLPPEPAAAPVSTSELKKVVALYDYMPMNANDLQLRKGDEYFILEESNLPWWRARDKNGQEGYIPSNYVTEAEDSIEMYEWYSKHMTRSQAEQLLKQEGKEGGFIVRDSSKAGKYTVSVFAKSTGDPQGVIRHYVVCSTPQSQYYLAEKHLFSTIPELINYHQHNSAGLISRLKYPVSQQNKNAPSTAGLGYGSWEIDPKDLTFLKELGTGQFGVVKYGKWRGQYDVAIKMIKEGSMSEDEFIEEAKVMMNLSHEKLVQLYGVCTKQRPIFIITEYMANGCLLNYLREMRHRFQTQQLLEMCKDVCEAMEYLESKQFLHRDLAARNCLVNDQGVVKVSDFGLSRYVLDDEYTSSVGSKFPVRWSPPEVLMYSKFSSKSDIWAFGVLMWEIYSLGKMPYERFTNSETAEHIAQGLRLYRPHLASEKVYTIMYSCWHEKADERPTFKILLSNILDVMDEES
EPHB3 (human), sequence (P54753 whole entry, looked up): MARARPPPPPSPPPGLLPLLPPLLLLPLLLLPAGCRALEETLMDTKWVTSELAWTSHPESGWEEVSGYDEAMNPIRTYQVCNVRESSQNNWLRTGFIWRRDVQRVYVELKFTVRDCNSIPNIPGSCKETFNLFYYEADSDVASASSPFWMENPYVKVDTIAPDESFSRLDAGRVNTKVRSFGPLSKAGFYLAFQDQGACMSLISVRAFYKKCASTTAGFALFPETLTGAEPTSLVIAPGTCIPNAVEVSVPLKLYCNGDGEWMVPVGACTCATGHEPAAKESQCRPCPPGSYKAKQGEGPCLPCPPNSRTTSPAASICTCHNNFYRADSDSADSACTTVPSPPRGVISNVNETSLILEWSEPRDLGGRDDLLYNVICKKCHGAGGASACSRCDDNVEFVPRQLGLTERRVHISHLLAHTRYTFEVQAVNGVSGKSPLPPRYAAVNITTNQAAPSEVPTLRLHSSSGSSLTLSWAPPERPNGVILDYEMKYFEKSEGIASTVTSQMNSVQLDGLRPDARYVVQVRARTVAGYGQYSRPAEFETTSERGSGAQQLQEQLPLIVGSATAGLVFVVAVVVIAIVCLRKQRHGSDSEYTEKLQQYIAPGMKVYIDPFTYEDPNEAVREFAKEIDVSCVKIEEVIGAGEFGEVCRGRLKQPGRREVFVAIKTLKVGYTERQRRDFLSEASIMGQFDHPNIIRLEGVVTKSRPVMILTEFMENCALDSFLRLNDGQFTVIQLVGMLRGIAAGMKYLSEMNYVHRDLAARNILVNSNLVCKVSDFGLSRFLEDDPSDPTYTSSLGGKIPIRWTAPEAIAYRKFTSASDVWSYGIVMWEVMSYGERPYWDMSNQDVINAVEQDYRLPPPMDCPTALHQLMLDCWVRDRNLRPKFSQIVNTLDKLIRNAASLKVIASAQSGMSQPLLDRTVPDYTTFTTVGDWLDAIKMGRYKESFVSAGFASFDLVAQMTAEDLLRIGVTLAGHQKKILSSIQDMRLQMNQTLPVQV
RIPK2 (human), sequence (O43353 whole entry, looked up): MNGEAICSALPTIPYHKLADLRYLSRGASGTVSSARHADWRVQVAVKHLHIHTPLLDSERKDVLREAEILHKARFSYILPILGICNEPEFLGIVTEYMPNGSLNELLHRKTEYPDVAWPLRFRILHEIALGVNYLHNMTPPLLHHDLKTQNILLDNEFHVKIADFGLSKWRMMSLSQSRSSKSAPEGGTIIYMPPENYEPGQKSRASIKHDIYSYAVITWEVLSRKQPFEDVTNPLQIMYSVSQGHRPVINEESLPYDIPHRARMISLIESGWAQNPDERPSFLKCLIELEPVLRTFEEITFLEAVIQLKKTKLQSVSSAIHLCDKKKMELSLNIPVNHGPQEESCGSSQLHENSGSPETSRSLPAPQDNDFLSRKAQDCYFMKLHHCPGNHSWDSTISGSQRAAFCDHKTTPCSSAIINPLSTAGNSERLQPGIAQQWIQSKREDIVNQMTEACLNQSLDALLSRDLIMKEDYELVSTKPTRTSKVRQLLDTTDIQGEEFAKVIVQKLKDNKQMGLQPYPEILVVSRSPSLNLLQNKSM
MAP2K2 (human), sequence (P36507 whole entry, looked up): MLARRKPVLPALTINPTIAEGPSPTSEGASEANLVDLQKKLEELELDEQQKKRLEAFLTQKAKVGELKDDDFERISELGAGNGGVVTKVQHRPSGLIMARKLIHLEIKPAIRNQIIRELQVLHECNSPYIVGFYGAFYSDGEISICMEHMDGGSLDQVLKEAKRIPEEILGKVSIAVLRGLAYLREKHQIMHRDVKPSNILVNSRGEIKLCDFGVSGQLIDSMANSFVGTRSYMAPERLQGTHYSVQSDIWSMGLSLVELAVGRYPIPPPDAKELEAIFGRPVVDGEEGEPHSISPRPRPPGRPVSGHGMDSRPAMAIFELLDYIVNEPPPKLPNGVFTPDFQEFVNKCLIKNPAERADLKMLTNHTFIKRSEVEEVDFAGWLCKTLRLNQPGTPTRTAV
HIPK2 (human), sequence (Q9H2X6 whole entry, looked up): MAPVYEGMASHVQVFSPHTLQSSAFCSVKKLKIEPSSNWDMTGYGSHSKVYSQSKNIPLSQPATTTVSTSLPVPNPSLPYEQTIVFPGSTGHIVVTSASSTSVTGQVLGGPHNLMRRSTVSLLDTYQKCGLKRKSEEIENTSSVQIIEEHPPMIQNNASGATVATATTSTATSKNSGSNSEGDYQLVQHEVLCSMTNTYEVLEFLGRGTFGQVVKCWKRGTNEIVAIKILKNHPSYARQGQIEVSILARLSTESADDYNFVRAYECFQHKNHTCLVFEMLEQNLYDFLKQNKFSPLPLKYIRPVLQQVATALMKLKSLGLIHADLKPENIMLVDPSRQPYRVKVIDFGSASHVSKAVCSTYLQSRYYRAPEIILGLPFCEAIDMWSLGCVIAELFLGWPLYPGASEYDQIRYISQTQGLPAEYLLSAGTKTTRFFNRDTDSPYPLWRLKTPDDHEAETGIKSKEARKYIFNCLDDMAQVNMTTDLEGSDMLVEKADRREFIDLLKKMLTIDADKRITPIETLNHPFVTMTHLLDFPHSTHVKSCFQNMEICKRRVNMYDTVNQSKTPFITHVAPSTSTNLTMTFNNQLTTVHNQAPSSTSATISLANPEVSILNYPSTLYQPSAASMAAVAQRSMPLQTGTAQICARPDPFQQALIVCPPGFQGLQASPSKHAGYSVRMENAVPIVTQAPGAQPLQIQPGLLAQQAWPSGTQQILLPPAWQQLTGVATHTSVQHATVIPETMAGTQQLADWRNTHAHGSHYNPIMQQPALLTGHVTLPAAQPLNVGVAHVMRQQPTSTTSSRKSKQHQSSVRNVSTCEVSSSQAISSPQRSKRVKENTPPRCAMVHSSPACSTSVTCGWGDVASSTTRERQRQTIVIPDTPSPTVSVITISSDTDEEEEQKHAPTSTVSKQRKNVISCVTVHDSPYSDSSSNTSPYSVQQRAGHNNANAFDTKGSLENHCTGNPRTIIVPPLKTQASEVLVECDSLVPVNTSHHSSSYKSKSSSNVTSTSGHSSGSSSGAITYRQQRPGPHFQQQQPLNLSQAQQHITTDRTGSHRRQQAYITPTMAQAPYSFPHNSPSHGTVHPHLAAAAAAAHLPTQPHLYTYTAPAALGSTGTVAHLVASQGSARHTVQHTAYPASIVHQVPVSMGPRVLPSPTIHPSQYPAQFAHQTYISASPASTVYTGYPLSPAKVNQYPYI
PAK4 (human), sequence (O96013 whole entry, looked up): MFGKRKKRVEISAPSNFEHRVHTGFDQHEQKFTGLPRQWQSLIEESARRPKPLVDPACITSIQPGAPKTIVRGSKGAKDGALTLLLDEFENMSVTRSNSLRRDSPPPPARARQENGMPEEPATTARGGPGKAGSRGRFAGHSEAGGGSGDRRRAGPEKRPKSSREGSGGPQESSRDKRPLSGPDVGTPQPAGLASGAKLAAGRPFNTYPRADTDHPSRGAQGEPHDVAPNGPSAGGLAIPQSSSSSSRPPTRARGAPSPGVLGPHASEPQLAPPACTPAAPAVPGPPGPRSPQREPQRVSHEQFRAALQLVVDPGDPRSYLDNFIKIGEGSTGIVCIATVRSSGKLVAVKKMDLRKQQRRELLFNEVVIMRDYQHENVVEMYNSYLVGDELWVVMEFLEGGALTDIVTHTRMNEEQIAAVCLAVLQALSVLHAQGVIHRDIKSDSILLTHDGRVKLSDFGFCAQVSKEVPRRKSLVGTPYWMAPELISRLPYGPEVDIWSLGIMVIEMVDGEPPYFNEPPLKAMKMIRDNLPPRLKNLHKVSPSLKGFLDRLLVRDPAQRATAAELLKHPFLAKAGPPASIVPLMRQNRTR

COc1cc(O)c2c(c1)/C=C/C[C@H](O)[C@H](O)C(=O)/C=C\C[C@H](C)OC2=O
residual activity (MAPK9 (human); compound 0.1 µM): 109%
residual activity (MAPK9 (human); compound 1.0 µM): 81%
residual activity (IKBKE (human); compound 0.1 µM): 120%
residual activity (IKBKE (human); compound 1.0 µM): 92%
residual activity (PAK4 (human); compound 0.1 µM): 94%
residual activity (PAK4 (human); compound 1.0 µM): 81%
residual activity (MAP3K11 (human); compound 0.1 µM): 114%
residual activity (MAP3K11 (human); compound 1.0 µM): 79%
residual activity (HIPK2 (human); compound 0.1 µM): 98%
residual activity (HIPK2 (human); compound 1.0 µM): 82%
residual activity (DYRK1A (human); compound 0.1 µM): 117%
residual activity (DYRK1A (human); compound 1.0 µM): 97%
residual activity (CAMKK2 (human); compound 0.1 µM): 87%
residual activity (CAMKK2 (human); compound 1.0 µM): 57%
residual activity (YES1 (human); compound 1.0 µM): 60%
residual activity (MKNK2 (human); compound 0.1 µM): 41%
residual activity (MKNK2 (human); compound 1.0 µM): 26%
residual activity (MAPKAPK2 (human); compound 0.1 µM): 124%
residual activity (MAPKAPK2 (human); compound 1.0 µM): 79%
residual activity (IKBKB (human); compound 0.1 µM): 102%
residual activity (IKBKB (human); compound 1.0 µM): 95%
residual activity (MAPKAPK5 (human); compound 0.1 µM): 66%
residual activity (MAPKAPK5 (human); compound 1.0 µM): 14%
residual activity (CSNK1D (human); compound 0.1 µM): 102%
residual activity (CSNK1D (human); compound 1.0 µM): 104%
residual activity (EPHB3 (human); compound 0.1 µM): 111%
residual activity (EPHB3 (human); compound 1.0 µM): 100%
residual activity (MAP3K7 TAB1 (human); compound 0.1 µM): 5%
residual activity (MAP3K7 TAB1 (human); compound 1.0 µM): 3%
residual activity (MINK1 (human); compound 0.1 µM): 101%
residual activity (MINK1 (human); compound 1.0 µM): 83%
residual activity (PRKACA (human); compound 0.1 µM): 99%
residual activity (PRKACA (human); compound 1.0 µM): 93%
residual activity (MAPK14 (human); compound 0.1 µM): 103%
residual activity (MAPK14 (human); compound 1.0 µM): 85%
residual activity (MAPK12 (human); compound 0.1 µM): 99%
residual activity (MAPK12 (human); compound 1.0 µM): 92%
residual activity (DYRK2 (human); compound 0.1 µM): 114%
residual activity (DYRK2 (human); compound 1.0 µM): 89%
residual activity (MAPK15 (human); compound 0.1 µM): 40%
residual activity (MAPK15 (human); compound 1.0 µM): 4%
residual activity (BRSK1 (human); compound 0.1 µM): 113%
residual activity (BRSK1 (human); compound 1.0 µM): 90%
residual activity (CSK (human); compound 0.1 µM): 118%
residual activity (CSK (human); compound 1.0 µM): 56%
residual activity (MAPK8 (human); compound 0.1 µM): 90%
residual activity (MAPK8 (human); compound 1.0 µM): 52%
residual activity (PAK7 (human); compound 0.1 µM): 96%
residual activity (PAK7 (human); compound 1.0 µM): 103%
residual activity (BTK (human); compound 0.1 µM): 90%
residual activity (BTK (human); compound 1.0 µM): 93%
residual activity (IGF1R (human); compound 0.1 µM): 100%
residual activity (IGF1R (human); compound 1.0 µM): 93%
residual activity (AURKB (human); compound 0.1 µM): 94%
residual activity (AURKB (human); compound 1.0 µM): 74%
residual activity (EPHB2 (human); compound 1.0 µM): 75%
residual activity (RIPK2 (human); compound 0.1 µM): 103%
residual activity (RIPK2 (human); compound 1.0 µM): 39%
residual activity (MAP2K2 (human); compound 0.1 µM): 12%
residual activity (MAP2K2 (human); compound 1.0 µM): 3%
residual activity (PIM1 (human); compound 0.1 µM): 102%
residual activity (PIM1 (human); compound 1.0 µM): 72%
residual activity (EPHA4 (human); compound 0.1 µM): 91%
residual activity (EPHA4 (human); compound 1.0 µM): 46%
residual activity (MELK (human); compound 0.1 µM): 95%
residual activity (MELK (human); compound 1.0 µM): 94%
residual activity (CaMK1 (human); compound 0.1 µM): 88%
residual activity (CaMK1 (human); compound 1.0 µM): 105%

N#Cc1c(O)c2c(-c3ccc(-c4ccccc4O)cc3)csc2[nH]c1=O
residual activity (MAPK9 (human); compound 10.0 µM): 94%
residual activity (MAPK9 (human); compound 50.0 µM): 89%
residual activity (MAPK9 (human); compound 100.0 µM): 88%
residual activity (IKBKE (human); compound 10.0 µM): 69%
residual activity (IKBKE (human); compound 50.0 µM): 47%
residual activity (IKBKE (human); compound 100.0 µM): 12%
residual activity (PAK4 (human); compound 10.0 µM): 52%
residual activity (PAK4 (human); compound 50.0 µM): 38%
residual activity (PAK4 (human); compound 100.0 µM): 41%
residual activity (MAP3K11 (human); compound 10.0 µM): 43%
residual activity (MAP3K11 (human); compound 100.0 µM): 4%
residual activity (HIPK2 (human); compound 10.0 µM): 99%
residual activity (HIPK2 (human); compound 50.0 µM): 58%
residual activity (HIPK2 (human); compound 100.0 µM): 19%
residual activity (DYRK1A (human); compound 10.0 µM): 75%
residual activity (DYRK1A (human); compound 50.0 µM): 60%
residual activity (DYRK1A (human); compound 100.0 µM): 26%
residual activity (CAMKK2 (human); compound 10.0 µM): 87%
residual activity (CAMKK2 (human); compound 50.0 µM): 48%
residual activity (CAMKK2 (human); compound 100.0 µM): 78%
residual activity (YES1 (human); compound 10.0 µM): 96%
residual activity (YES1 (human); compound 50.0 µM): 13%
residual activity (YES1 (human); compound 100.0 µM): 16%
residual activity (MKNK2 (human); compound 10.0 µM): 102%
residual activity (MKNK2 (human); compound 50.0 µM): 80%
residual activity (MKNK2 (human); compound 100.0 µM): 86%
residual activity (MAPKAPK2 (human); compound 10.0 µM): 77%
residual activity (MAPKAPK2 (human); compound 50.0 µM): 32%
residual activity (MAPKAPK2 (human); compound 100.0 µM): 30%
residual activity (IKBKB (human); compound 10.0 µM): 86%
residual activity (IKBKB (human); compound 50.0 µM): 60%
residual activity (IKBKB (human); compound 100.0 µM): 39%
residual activity (MAPKAPK5 (human); compound 10.0 µM): 52%
residual activity (MAPKAPK5 (human); compound 50.0 µM): 25%
residual activity (MAPKAPK5 (human); compound 100.0 µM): 15%
residual activity (CSNK1D (human); compound 10.0 µM): 88%
residual activity (CSNK1D (human); compound 50.0 µM): 60%
residual activity (CSNK1D (human); compound 100.0 µM): 88%
residual activity (EPHB3 (human); compound 10.0 µM): 81%
residual activity (EPHB3 (human); compound 100.0 µM): 55%
residual activity (MAP3K7 TAB1 (human); compound 10.0 µM): 83%
residual activity (MAP3K7 TAB1 (human); compound 100.0 µM): 72%
residual activity (MINK1 (human); compound 10.0 µM): 65%
residual activity (MINK1 (human); compound 100.0 µM): 5%
residual activity (PRKACA (human); compound 10.0 µM): 89%
residual activity (PRKACA (human); compound 50.0 µM): 41%
residual activity (PRKACA (human); compound 100.0 µM): 95%
residual activity (MAPK14 (human); compound 10.0 µM): 97%
residual activity (MAPK14 (human); compound 50.0 µM): 122%
residual activity (MAPK14 (human); compound 100.0 µM): 90%
residual activity (MAPK12 (human); compound 10.0 µM): 95%
residual activity (MAPK12 (human); compound 50.0 µM): 80%
residual activity (MAPK12 (human); compound 100.0 µM): 83%
residual activity (DYRK2 (human); compound 10.0 µM): 63%
residual activity (DYRK2 (human); compound 50.0 µM): 84%
residual activity (DYRK2 (human); compound 100.0 µM): 33%
residual activity (MAPK15 (human); compound 10.0 µM): 81%
residual activity (MAPK15 (human); compound 50.0 µM): 36%
residual activity (MAPK15 (human); compound 100.0 µM): 24%
residual activity (BRSK1 (human); compound 10.0 µM): 76%
residual activity (BRSK1 (human); compound 100.0 µM): 51%
residual activity (CSK (human); compound 10.0 µM): 79%
residual activity (CSK (human); compound 50.0 µM): 46%
residual activity (CSK (human); compound 100.0 µM): 82%
residual activity (MAPK8 (human); compound 10.0 µM): 99%
residual activity (MAPK8 (human); compound 50.0 µM): 102%
residual activity (MAPK8 (human); compound 100.0 µM): 93%
residual activity (PAK7 (human); compound 10.0 µM): 58%
residual activity (PAK7 (human); compound 50.0 µM): 50%
residual activity (PAK7 (human); compound 100.0 µM): 39%
residual activity (BTK (human); compound 10.0 µM): 52%
residual activity (BTK (human); compound 100.0 µM): 10%
residual activity (IGF1R (human); compound 10.0 µM): 94%
residual activity (IGF1R (human); compound 100.0 µM): 65%
residual activity (AURKB (human); compound 10.0 µM): 53%
residual activity (AURKB (human); compound 50.0 µM): 25%
residual activity (AURKB (human); compound 100.0 µM): 22%
residual activity (EPHB2 (human); compound 10.0 µM): 93%
residual activity (EPHB2 (human); compound 100.0 µM): 13%
residual activity (RIPK2 (human); compound 10.0 µM): 110%
residual activity (RIPK2 (human); compound 100.0 µM): 139%
residual activity (MAP2K2 (human); compound 10.0 µM): 74%
residual activity (MAP2K2 (human); compound 100.0 µM): 19%
residual activity (PIM1 (human); compound 10.0 µM): 26%
residual activity (PIM1 (human); compound 50.0 µM): 5%
residual activity (PIM1 (human); compound 100.0 µM): 7%
residual activity (EPHA4 (human); compound 10.0 µM): 93%
residual activity (EPHA4 (human); compound 100.0 µM): 64%
residual activity (MELK (human); compound 10.0 µM): 46%
residual activity (MELK (human); compound 50.0 µM): 64%
residual activity (MELK (human); compound 100.0 µM): 21%
residual activity (CaMK1 (human); compound 10.0 µM): 68%
residual activity (CaMK1 (human); compound 50.0 µM): 45%
residual activity (CaMK1 (human); compound 100.0 µM): 7%
